Peptide text beside a SMILES is read from it. * marks the point of attachment. Bz = O=C(c1ccccc1)*
What was measured:
Genome polyprotein [1] = molecular target: Genome polyprotein (dengue virus type 2, UniProt P12823); test: Inhibition of dengue virus-2 NS2B-NS3 protease
dengue virus type 3 = test: Antiviral activity against Dengue virus 3; type: functional, organism-based
dengue virus type 4 = test: Antiviral activity against Dengue virus 4; type: functional, organism-based
dengue virus type 2 = test: Antiviral activity against Dengue virus 2; type: functional, organism-based
dengue virus type 1 = test: Antiviral activity against Dengue virus 1; type: functional, organism-based
Genome polyprotein [2] = molecular target: T1, Genome polyprotein (dengue virus type 2, UniProt Q91H74); test: Inhibition of dengue virus-3 NS2B-NS3 protease; set-up: species or system dengue virus type 3
Genome polyprotein [3] = molecular target: T1, Genome polyprotein; test: Inhibition of dengue virus-4 NS2B-NS3 protease; set-up: species or system dengue virus type 4
Genome polyprotein [4] = molecular target: T1, Genome polyprotein; test: Inhibition of dengue virus-1 NS2B-NS3 protease; set-up: species or system dengue virus type 1
Genome polyprotein [5] = molecular target: T1, Genome polyprotein; test: Inhibition of dengue virus NS2B-NS3 protease
Chikungunya virus = test: Antiviral activity against Chikungunya virus assessed as inhibition of viral replication; type: functional
[6] = Inhibition of Dengue virus-3 2'-O-methyltransferase; set-up: species or system dengue virus type 3
[7] = Inhibition of Dengue virus-3 N7-methyltransferase; set-up: species or system dengue virus type 3
[8] = Inhibition of Dengue virus RNA-directed RNA polymerase NS5
Genome polyprotein [9] = molecular target: T2, Genome polyprotein (West Nile virus, UniProt P06935); test: Inhibition of West Nile virus NS2B-NS3 protease
Dengue virus [10] = test: Antiviral activity against Dengue virus assessed as inhibition of viral replication; type: functional, organism-based
Genome polyprotein [11] = molecular target: T2, Genome polyprotein; test: Non-competitive inhibition of West Nile virus NS2B-NS3 protease
Dengue virus [12] = test: Antiviral activity against Dengue virus assessed as inhibition of viral RNA replication; type: functional, organism-based
Dengue virus [13] = test: Antiviral activity against Dengue virus; type: functional, organism-based

Question: Which results are given for `N#Cc1ccc(OC(=O)c2ccc(NC(=N)N)cc2)cc1`?
Answer: IC50 (Genome polyprotein [1]): 37900 nM; Ki (Genome polyprotein [1]): 31100 nM

Question: What does the source list for `O=C1c2c(O)ccc([N+](=O)[O-])c2C(=O)c2c([N+](=O)[O-])ccc(O)c21`?
Answer: EC50 (dengue virus type 3): 3080 nM; EC50 (dengue virus type 4): 880 nM; EC50 (dengue virus type 2): 440 nM; EC50 (dengue virus type 1): 5960 nM

Question: With `Cc1ccc(S(=O)(=O)Nc2cc(SCC(=O)O)c(O)c3ccccc23)cc1[N+](=O)[O-]` as the compound, how does the EC50 (dengue virus type 3) read?
Answer: The EC50 was 2430 nM.

Question: And the EC50 (dengue virus type 4)?
Answer: Its EC50 is 740 nM.

Question: And the EC50 (dengue virus type 2)?
Answer: Its EC50 is 980 nM.

Question: And the EC50 (dengue virus type 1)?
Answer: Its EC50 is 970 nM.

Question: For `N=C(N)Nc1ccc(O[C@H]2C[C@@H](Oc3ccc(NC(=N)N)cc3NC(=N)N)[C@H](NC(=N)N)C[C@@H]2NC(=N)N)c(NC(=N)N)c1`, which IC50 (Genome polyprotein [2]) is on record?
Answer: Its IC50 is 1000 nM.

Question: And the IC50 (Genome polyprotein [3])?
Answer: Its IC50 is 1000 nM.

Question: And the IC50 (Genome polyprotein [4])?
Answer: The IC50 was 1000 nM.

Question: And the IC50 (Genome polyprotein [1])?
Answer: The IC50 was 1000 nM.

Question: With `COc1ccc(-c2nnc(C(Cc3ccccc3)n3sc4ccccc4c3=O)o2)cc1` (stereo not drawn) as the compound, how does the IC50 (Genome polyprotein [5]) read?
Answer: Its IC50 is 3750 nM.

Question: Which IC50 (Chikungunya virus) does the source give for `CCOc1ccc(/C=N/NC(=O)/C=C/c2ccc(C(C)(C)C)cc2)cc1OCC` here?
Answer: Its IC50 is 3200 nM.

Question: Which IC50 (Genome polyprotein [1]) does the source give for `N=C(N)Nc1ccc(OC(=O)c2ccc(NC(=N)N)cc2)cc1` here?
Answer: The IC50 was 7700 nM.

Question: What about the Ki (Genome polyprotein [1]) of the same compound?
Answer: The Ki was 2000 nM.

Question: Which Ki [6] does the source give for `NC(CCSC[C@H]1O[C@@H](n2ccc3c(NCc4cccc(Cl)c4)ncnc32)C(O)C1O)C(=O)O` (stereo partly drawn) here?
Answer: The Ki was 170 nM.

Question: And the Ki [7]?
Answer: The Ki was 820 nM.

Question: For `O=c1cc(-c2ccc(Oc3c(O)cc4occ(-c5ccc(O)cc5)c(=O)c4c3O)cc2)oc2cc(O)cc(O)c12`, which IC50 [8] is on record?
Answer: The IC50 was 260 nM.

Question: Which IC50 [8] does the source give for `COc1ccc(-c2coc3c(-c4cc(-c5cc(=O)c6c(O)cc(O)cc6o5)ccc4O)c(O)cc(O)c3c2=O)cc1` here?
Answer: Its IC50 is 750 nM.

Question: Which IC50 (Genome polyprotein [9]) does the source give for `N=C(N)NCCC[C@H](NC(=O)[C@H](CCCCN)NC(=O)[C@H](CCCCN)NC(=O)C1CC1)C(=O)O` here?
Answer: Its IC50 is 380 nM.

Question: For `O=c1c(OC2O[C@H](CO)[C@@H](O)[C@H](O)[C@H]2O)c(-c2ccc(OC3O[C@H](CO)[C@@H](O)[C@H](O)[C@H]3O)c(O)c2)oc2cc(O)cc(O)c12` (stereo partly drawn), which IC50 (Dengue virus [10]) is on record?
Answer: Its IC50 is 1700 nM.

Question: Which IC50 (Genome polyprotein [9]) does the source give for `Oc1c(C(Nc2nccs2)c2cccc(OCc3ccccc3)c2)ccc2cccnc12` (stereo not drawn) here?
Answer: Its IC50 is 2010 nM.

Question: Which IC50 (Genome polyprotein [9]) does the source give for `CCc1ccc(NC(=O)CSc2nc3ccc(NC(=O)CSc4nnc(-c5ccccc5)n4C)cc3s2)cc1` here?
Answer: Its IC50 is 3400 nM.

Question: With `Cc1ccc2c(c1)-c1c(=O)nc(SCc3ccccc3)[nH][n+]1C(c1ccc(Cl)cc1)N2` (stereo not drawn) as the compound, how does the IC50 (Genome polyprotein [11]) read?
Answer: The IC50 was 5410 nM.

Question: Which IC50 (Genome polyprotein [11]) does the source give for `CCCSc1nnc(N2C(=O)C(O)=C(C(=O)c3ccc(Cl)cc3)C2c2ccc(Cl)cc2)s1` (stereo not drawn) here?
Answer: Its IC50 is 2200 nM.

Question: With `CC(C)C[C@@H]1NC(=O)[C@H](CCCN)NC(=O)[C@H](C(C)C)NC(=O)[C@H](Cc2ccc(O)cc2)N[C@@H](CCC(=O)O)C(=O)N[C@@H](CC(N)=O)C(=O)[C@@H](Cc2ccccc2)NC(=O)[C@H](Cc2ccccc2)NC(=O)[C@@H]2CCCN2C(=O)[C@@H](Cc2ccccc2)NC1=O` as the compound, how does the Ki (Genome polyprotein [9]) read?
Answer: The Ki was 2000 nM.

Question: With `N=C(N)N[C@H]1CC[C@H](CNC(=O)[C@H](CCCCN)NC(=O)[C@H](CCCCN)NC(=O)Cc2ccc(Cl)c(Cl)c2)CC1` as the compound, how does the Ki (Genome polyprotein [9]) read?
Answer: Its Ki is 130 nM.

Question: For `O=c1cc(-c2ccccc2)oc2ccc(-c3cn[nH]n3)cc12`, which IC50 (Genome polyprotein [5]) is on record?
Answer: The IC50 was 69000 nM.

Question: Which IC50 (Genome polyprotein [5]) does the source give for `Cc1cc(C)c2c(c1)OC(c1ccc(N(C)C)cc1)CC2=O` (stereo not drawn) here?
Answer: Its IC50 is 121000 nM.

Question: For `Cc1ccc(C(NN=C(N)N)[PH](=O)O)cc1` (stereo not drawn), which IC50 (Genome polyprotein [5]) is on record?
Answer: Its IC50 is 14000 nM.

Question: Which IC50 (Genome polyprotein [9]) does the source give for `N=C(N)NCCC[C@H](NC(=O)[C@H](CCCCN)NC(=O)[C@H](CCCCN)NC(=O)c1ccccc1)C(=O)O` (Bz-Lys-Lys-Arg-OH) here?
Answer: Its IC50 is 420 nM.

Question: With `NC(=O)[C@H](Cc1c[nH]c2ccccc12)NC(=O)[C@H](CS)NC(=O)[C@H](Cc1ccc(O)cc1)NC(=O)[C@@H](N)Cc1c[nH]c2ccccc12` (H-WYCW-NH2) as the compound, how does the Ki (Genome polyprotein [2]) read?
Answer: The Ki was 24400 nM.

Question: And the Ki (Genome polyprotein [3])?
Answer: Its Ki is 11200 nM.

Question: What about the Ki (Genome polyprotein [4]) of the same compound?
Answer: The Ki was 4200 nM.

Question: What about the Ki (Genome polyprotein [1]) of the same compound?
Answer: Its Ki is 4800 nM.

Question: For `O=c1c(O[C@@H]2O[C@@H](CO)[C@H](O)[C@H]2O)c(-c2ccc(O)c(O)c2)oc2cc(O)cc(O)c12` [AVICULARIN], which IC50 (Dengue virus [10]) is on record?
Answer: Its IC50 is 1700 nM.

Question: Which IC50 (Dengue virus [10]) does the source give for `C=C(C)[C@@H]1CC[C@]2(C(=O)O)CC[C@]3(C)[C@H](CC[C@@H]4[C@@]5(C)CC[C@H](O)C(C)(C)[C@@H]5CC[C@]43C)[C@@H]12` [BETULINIC ACID] here?
Answer: Its IC50 is 1700 nM.

Question: For `Cc1nc(Nc2ncc(C(=O)Nc3c(C)cccc3Cl)s2)cc(N2CCN(CCO)CC2)n1` [DASATINIB], which EC50 (Dengue virus [12]) is on record?
Answer: The EC50 was 110 nM.

Question: Which IC50 (Dengue virus [10]) does the source give for `O=c1c(O[C@@H]2O[C@H](CO)[C@H](O)[C@H](O)[C@H]2O)c(-c2ccc(O)c(O)c2)oc2cc(O)cc(O)c12` [HYPEROSIDE] here?
Answer: The IC50 was 1700 nM.

Question: Which IC50 (Genome polyprotein [11]) does the source give for `COc1cc2c(cc1OC)-c1cc3ccc(OC)c(OC)c3c[n+]1CC2` [PALMITINE] here?
Answer: Its IC50 is 96000 nM.

Question: With `C[C@@H]1O[C@@H](Oc2c(-c3ccc(O)c(O)c3)oc3cc(O)cc(O)c3c2=O)[C@H](O)[C@H](O)[C@H]1O` [QUERCITRIN] as the compound, how does the IC50 (Dengue virus [10]) read?
Answer: The IC50 was 1700 nM.

Question: With `NC(=O)c1ncn([C@@H]2O[C@H](CO)[C@@H](O)[C@H]2O)n1` [RIBAVIRIN] as the compound, how does the EC50 (Dengue virus [13]) read?
Answer: The EC50 was 49000 nM.

Question: For `C[C@@H]1O[C@@H](OC[C@H]2O[C@@H](Oc3c(-c4ccc(O)c(O)c4)oc4cc(O)cc(O)c4c3=O)[C@H](O)[C@@H](O)[C@@H]2O)[C@H](O)[C@H](O)[C@H]1O` [RUTIN], which IC50 (Dengue virus [10]) is on record?
Answer: Its IC50 is 1700 nM.

Question: Which EC50 (Dengue virus [12]) does the source give for `CN1CCN(CCOc2cc(OC3CCOCC3)c3c(Nc4c(Cl)ccc5c4OCO5)ncnc3c2)CC1` [SARACATINIB] here?
Answer: Its EC50 is 1600 nM.

Question: For `O=c1c(O)c(-c2ccc(O[C@@H]3O[C@H](CO)[C@@H](O)[C@H](O)[C@H]3O)c(O)c2)oc2cc(O)cc(O)c12` [SPIRAEOSIDE], which IC50 (Dengue virus [10]) is on record?
Answer: Its IC50 is 1700 nM.
